The nature of test [1]: DRUGMATRIX: Glutamate, NMDA, Phencyclidine radioligand binding (ligand: [3H] TCP). It is filed as cell membranes, Rattus norvegicus, Wistar, Cerebral cortex, Membrane. The note with it: Not Active = under 50% inhibition at 10 µM.
In test [2] the target is Beta-2 adrenergic receptor (Homo sapiens, UniProt P07550). In words: DRUGMATRIX: Adrenergic beta2 radioligand binding (ligand: [3H] CGP-12177). It is filed as cell membranes, Membrane. Particulars: cho; Not Active = under 50% inhibition at 10 µM.
Test [3] addresses T1, C-X-C chemokine receptor type 1 (Homo sapiens, UniProt P25024).
T1 sequence (P25024 whole entry): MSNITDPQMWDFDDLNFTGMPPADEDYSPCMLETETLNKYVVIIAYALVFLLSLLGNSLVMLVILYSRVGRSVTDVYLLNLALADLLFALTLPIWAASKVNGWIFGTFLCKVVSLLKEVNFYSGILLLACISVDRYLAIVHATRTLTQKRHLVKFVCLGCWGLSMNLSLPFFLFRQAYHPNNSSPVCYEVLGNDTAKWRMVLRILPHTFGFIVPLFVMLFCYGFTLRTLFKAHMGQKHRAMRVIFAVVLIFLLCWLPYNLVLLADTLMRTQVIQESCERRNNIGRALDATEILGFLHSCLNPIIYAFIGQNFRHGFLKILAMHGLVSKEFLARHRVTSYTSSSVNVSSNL

In test [4] the target is T2, B2 bradykinin receptor (Homo sapiens, UniProt P30411). Note: in other assays of this panel Not Active means under 50% inhibition at 10 µM.
T2 sequence (P30411 whole entry): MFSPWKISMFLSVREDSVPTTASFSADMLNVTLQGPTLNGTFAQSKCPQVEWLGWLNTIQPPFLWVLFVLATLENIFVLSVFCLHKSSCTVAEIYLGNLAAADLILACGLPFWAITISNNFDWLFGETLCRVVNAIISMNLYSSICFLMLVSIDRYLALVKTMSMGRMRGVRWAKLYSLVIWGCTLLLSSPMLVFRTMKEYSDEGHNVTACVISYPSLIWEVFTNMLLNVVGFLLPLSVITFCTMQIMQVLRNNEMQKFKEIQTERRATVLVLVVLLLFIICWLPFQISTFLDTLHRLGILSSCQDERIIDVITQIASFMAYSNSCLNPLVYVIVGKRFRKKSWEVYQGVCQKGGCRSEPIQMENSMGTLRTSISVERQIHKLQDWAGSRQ
It is filed as cell membranes, Membrane. Particulars: chem-1.

The target in test [5] is T3, D(4) dopamine receptor (Homo sapiens, UniProt P21917).
T3 sequence (P21917 whole entry): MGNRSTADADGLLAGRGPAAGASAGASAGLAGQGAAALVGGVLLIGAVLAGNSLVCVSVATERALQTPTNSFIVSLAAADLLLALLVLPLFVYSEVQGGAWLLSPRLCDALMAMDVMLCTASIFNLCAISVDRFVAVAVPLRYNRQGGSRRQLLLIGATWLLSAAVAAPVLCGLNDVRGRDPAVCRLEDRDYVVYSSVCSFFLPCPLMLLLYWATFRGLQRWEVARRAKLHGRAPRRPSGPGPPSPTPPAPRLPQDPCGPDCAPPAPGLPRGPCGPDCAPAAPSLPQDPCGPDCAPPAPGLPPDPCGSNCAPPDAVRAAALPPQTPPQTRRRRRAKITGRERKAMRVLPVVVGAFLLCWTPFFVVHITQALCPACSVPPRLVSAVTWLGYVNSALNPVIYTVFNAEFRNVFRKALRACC
In words: DRUGMATRIX: Dopamine D4.2 radioligand binding (ligand: [3H] Spiperone). It is filed as cell membranes, Membrane. Particulars: cho-k1; Not Active = under 50% inhibition at 10 µM.

A short description of test [6]: DRUGMATRIX: beta-Lactamase enzyme inhibition (substrate: Nitrocefin). Details: species or system Bacillus cereus. The note with it: Not Active = under 50% inhibition at 10 µM.
Test [7] has as its target D(3) dopamine receptor (Homo sapiens, UniProt P35462). In words: DRUGMATRIX: Dopamine D3 radioligand binding (ligand: [3H] Spiperone). Type of test: cell membranes, CHO, Membrane.

From ChEMBL document CHEMBL1909046, “DrugMatrix in vitro pharmacology data” come the findings set out here.

Sequence of D(3) dopamine receptor (P35462 whole entry): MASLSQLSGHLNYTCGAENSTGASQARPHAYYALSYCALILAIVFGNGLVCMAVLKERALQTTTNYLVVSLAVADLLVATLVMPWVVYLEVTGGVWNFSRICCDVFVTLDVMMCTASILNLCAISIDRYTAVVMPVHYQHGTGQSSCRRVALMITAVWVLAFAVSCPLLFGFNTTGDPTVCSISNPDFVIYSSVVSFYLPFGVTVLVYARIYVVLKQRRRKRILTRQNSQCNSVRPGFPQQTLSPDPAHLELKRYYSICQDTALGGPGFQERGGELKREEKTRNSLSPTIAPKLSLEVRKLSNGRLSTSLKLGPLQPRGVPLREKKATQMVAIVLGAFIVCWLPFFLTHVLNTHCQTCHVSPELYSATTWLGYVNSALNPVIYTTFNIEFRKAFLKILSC
Sequence of Beta-2 adrenergic receptor (P07550 whole entry): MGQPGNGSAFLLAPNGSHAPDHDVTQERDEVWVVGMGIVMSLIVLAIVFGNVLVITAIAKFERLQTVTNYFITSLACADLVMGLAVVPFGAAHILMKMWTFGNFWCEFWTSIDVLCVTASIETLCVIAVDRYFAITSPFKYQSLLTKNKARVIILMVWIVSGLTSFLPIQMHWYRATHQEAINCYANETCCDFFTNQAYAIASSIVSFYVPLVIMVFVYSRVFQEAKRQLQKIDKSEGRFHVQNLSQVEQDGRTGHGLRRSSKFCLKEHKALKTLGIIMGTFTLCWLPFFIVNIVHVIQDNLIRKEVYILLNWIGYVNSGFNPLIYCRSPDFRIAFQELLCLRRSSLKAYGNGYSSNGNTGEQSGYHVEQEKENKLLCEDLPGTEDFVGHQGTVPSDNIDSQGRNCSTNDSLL

In the case of `O=C1CC2(CCCC2)CC(=O)N1CCCCN1CCN(c2ncccn2)CC1` [BUSPIRONE], the half-maximal inhibitory concentration (IC50) entry in test [1], in test [2], in test [3], in test [4], in test [5] and in test [6] was “Not Active” in each case. In test [7] (read-out: IC50), the IC50 stood at 44 nM. The results for the inhibition constant (Ki) result in test [1], in test [6] and in test [7] were “Not Active”, “Not Active” and 15 nM, respectively.
Regarding `C[C@@]12C(=O)OC(=O)[C@]1(C)[C@H]1CC[C@@H]2O1` [CANTHARIDIN], the IC50 entry in test [1], in test [2], in test [3], in test [4], in test [5] and in test [6] was “Not Active” each time. Moreover, in test [7] (cho), the IC50 result is “Not Active”. In addition, the inhibition constant Ki entry in test [1] and in test [6] was “Not Active” in each case.
For `O=NN(CCCl)C(=O)NCCCl` [CARMUSTINE], the IC50 result in test [1], in test [2], in test [3], in test [4], in test [5] and in test [6] was “Not Active” throughout. Besides, in test [7] (cho), the IC50 result is “Not Active”. Moreover, the inhibition constant Ki result in test [1] and in test [6] was “Not Active” each time.
For `CC1=C(C(=O)O)N2C(=O)[C@@H](NC(=O)[C@H](N)c3ccccc3)[C@H]2SC1` [CEPHALEXIN ANHYDROUS], the IC50 result in test [1], in test [2], in test [3], in test [4], in test [5] and in test [6] was “Not Active” throughout. Also, in test [7] (cho), the half-inhibitory concentration (IC50) entry is recorded as “Not Active”. For the same molecule, the inhibitory constant (Ki) entry in test [1] and in test [6] was “Not Active” throughout.
Regarding `O=C(N[C@H](CO)[C@H](O)c1ccc([N+](=O)[O-])cc1)C(Cl)Cl` [CHLORAMPHENICOL], the IC50 result in test [1], in test [2], in test [3], in test [4], in test [5] and in test [6] was “Not Active” in each case. In addition, in test [7] (cho), the IC50 result is “Not Active”. The Ki entry in test [1] and in test [6] was “Not Active” in each case.
`ClC(Cl)Cl` [CHLOROFORM]: the IC50 result in test [1], in test [2], in test [3], in test [4], in test [5] and in test [6] was “Not Active” each time. In addition, the 50% inhibitory concentration (IC50) entry in test [7] (cho) is given as “Not Active”. Besides, the inhibition constant Ki entry in test [1] and in test [6] was “Not Active” throughout.
As for `C=C1CC[C@H](O)C/C1=C/C=C1\CCC[C@]2(C)[C@@H]([C@H](C)CCCC(C)C)CC[C@@H]12` [CHOLECALCIFEROL], the IC50 entry in test [1], in test [2], in test [3], in test [4], in test [5] and in test [6] was “Not Active” each time. In test [7] (cho), the IC50 result is “Not Active”. Moreover, the Ki entry in test [1] and in test [6] was “Not Active” each time.
As to `C[N+](C)(C)CCO.[Cl-]` [CHOLINE CHLORIDE], the IC50 result in test [1], in test [2], in test [3], in test [4], in test [5] and in test [6] was “Not Active” in each case. Also, the IC50 result in test [7] (cho) is listed as “Not Active”. The Ki result in test [1] and in test [6] was “Not Active” in each case.
In the case of `CCOC(=O)C(C)(C)Oc1ccc(Cl)cc1` [CLOFIBRATE], the half-maximal inhibitory concentration (IC50) result in test [1], in test [2], in test [3], in test [4], in test [5] and in test [6] was “Not Active” in each case. The concentration for half-maximal inhibition (IC50) entry in test [7] (cho) was “Not Active”. Further, the inhibition constant Ki entry in test [1] and in test [6] was “Not Active” each time.
For the molecule `CC(=O)OCC(=O)[C@@]1(O)CC[C@H]2[C@@H]3CCC4=CC(=O)CC[C@]4(C)[C@H]3C(=O)C[C@@]21C` [CORTISONE ACETATE], the IC50 entry in test [1], in test [2], in test [3], in test [4], in test [5] and in test [6] was “Not Active” in each case. In test [7] (cho), the IC50 entry is “Not Active”. Besides, the inhibition constant (Ki) entry in test [1] and in test [6] was “Not Active” in each case.
As for `O=c1ccc2ccccc2o1` [COUMARIN], the IC50 entry in test [1], in test [2], in test [3], in test [4], in test [5] and in test [6] was “Not Active” each time. Moreover, in test [7] (cho), the IC50 entry is on record as “Not Active”. The inhibition constant (Ki) result in test [1] and in test [6] was “Not Active” each time.
For the molecule `C[C@@H]1C[C@@H]([C@H](O)CC2CC(=O)NC(=O)C2)C(=O)[C@@H](C)C1` [CYCLOHEXIMIDE], the IC50 result in test [1], in test [2], in test [3], in test [4], in test [5] and in test [6] was “Not Active” each time. Also, in test [7] (cho), the 50% inhibitory concentration (IC50) entry is reported as “Not Active”. Further, the inhibition constant (Ki) entry in test [1] and in test [6] was “Not Active” throughout.
`C/C=C/C[C@@H](C)[C@@H](O)[C@H]1C(=O)N[C@@H](CC)C(=O)N(C)CC(=O)N(C)[C@@H](CC(C)C)C(=O)N[C@@H](C(C)C)C(=O)N(C)[C@@H](CC(C)C)C(=O)N[C@@H](C)C(=O)N[C@H](C)C(=O)N(C)[C@@H](CC(C)C)C(=O)N(C)[C@@H](CC(C)C)C(=O)N(C)[C@@H](C(C)C)C(=O)N1C` [CYCLOSPORINE]: the IC50 entry in test [1], in test [2], in test [3], in test [4], in test [5] and in test [6] was “Not Active” throughout. For the same molecule, the half-inhibitory concentration (IC50) entry in test [7] (cho) is recorded as “Not Active”. Besides, the inhibition constant Ki entry in test [1] and in test [6] was “Not Active” throughout.
`CN(C)/N=N/c1[nH]cnc1C(N)=O` [DACARBAZINE]: the half-inhibitory concentration (IC50) result in test [1], in test [2], in test [3], in test [4], in test [5] and in test [6] was “Not Active” in each case. The half-inhibitory concentration (IC50) result in test [7] (cho) is “Not Active”. The Ki result in test [1] and in test [6] was “Not Active” each time.
As to `COc1ccc2c(c1)[C@]13CCCC[C@@H]1[C@H](C2)N(C)CC3` [DEXTROMETHORPHAN], the 50% inhibitory concentration (IC50) in test [1] (read-out: IC50) is 2420 nM; in test [2], “Not Active”; in test [3], “Not Active”; in test [4], “Not Active”; in test [5] it was “Not Active”; in test [6] it was “Not Active”. Also, the IC50 entry in test [7] (cho) was “Not Active”. In addition, the inhibition constant (Ki) in test [1] (read-out: Ki) is 1640 nM; in test [6], “Not Active”.
As to `CC(=O)Nc1c(I)c(NC(C)=O)c(I)c(C(=O)O)c1I` [DIATRIZOIC ACID], the half-inhibitory concentration (IC50) entry in test [1], in test [2], in test [3], in test [4], in test [5] and in test [6] was “Not Active” throughout. Besides, in test [7] (cho), the IC50 entry is reported as “Not Active”. Besides, the Ki result in test [1] and in test [6] was “Not Active” each time.
Turning to `COP(=O)(OC)OC=C(Cl)Cl` [DICHLORVOS], the half-maximal inhibitory concentration (IC50) entry in test [1], in test [2], in test [3], in test [4], in test [5] and in test [6] was “Not Active” throughout. Also, the IC50 entry in test [7] (cho) is “Not Active”. The Ki entry in test [1] and in test [6] was “Not Active” throughout.
